Source: ChEMBL document CHEMBL1153605, “Synthesis and in vivo antidiabetic activity of novel dispiropyrrolidines through [3+2] cycloaddition reactions with thiazolidinedione and rhodanine derivatives” (2009)

Columns and labels:
Format in all cases: functional
[1] = tested on: Rattus norvegicus; assay: Antidiabetic activity in alloxan-induced diabetic Wistar rat model assessed as reduction in blood glucose level at 36 mg/kg, po administered once daily for 15 days measured after 1 hr postdose
[2] = tested on: Rattus norvegicus; assay: Antidiabetic activity in alloxan-induced diabetic Wistar rat model assessed as reduction in blood glucose level at 36 mg/kg, po administered once daily for 15 days measured after 3 hrs postdose
[3] = tested on: Rattus norvegicus; assay: Antidiabetic activity in alloxan-induced diabetic Wistar rat model assessed as reduction in blood glucose level at 36 mg/kg, po administered once daily for 15 days measured after 6 hrs postdose
[4] = tested on: Rattus norvegicus; assay: Reduction of serum GPT level in alloxan-induced diabetic Wistar rat model at 36 mg/kg, po administered once daily for 15 days measured on day 18
[5] = tested on: Rattus norvegicus; assay: Reduction of serum creatinine level in alloxan-induced diabetic Wistar rat model at 36 mg/kg, po administered once daily for 15 days measured on day 18
[6] = tested on: Rattus norvegicus; assay: Reduction of blood urea nitrogen level in alloxan-induced diabetic Wistar rat model at 36 mg/kg, po administered once daily for 15 days measured on day 18
[7] = tested on: Rattus norvegicus; assay: Reduction of liver GPT level in alloxan-induced diabetic Wistar rat model assessed per mg of protein at 36 mg/kg, po administered once daily for 15 days measured on day 18
[8] = tested on: Rattus norvegicus; assay: Reduction of liver ALP level in alloxan-induced diabetic Wistar rat model at 36 mg/kg, po administered once daily for 15 days measured on day 18

With `COc1ccc([C@H]2CN(C)[C@@]3(C(=O)Nc4ccccc43)[C@@]23SC(=O)NC3=O)cc1OC` the Activity [1] was 133.5 mg/dL, the Activity [2] was 123.8 mg/dL and the Activity [3] was 115.8 mg/dL. For the same compound, the Activity [4] was 140.5 U/ml, the Activity [5] was 1.8 mg/dL and the Activity [6] was 41.8 mg/dL. The Activity [7] was 698 U/mg protein and the Activity [8] was 48.5 KA/dl.
In the case of `CN1C[C@H](c2ccc(F)c(F)c2)[C@]2(SC(=O)NC2=O)[C@]12C(=O)Nc1ccccc12`, the Activity [1] is reported as 134.5 mg/dL, the Activity [2] is reported as 123.5 mg/dL and the Activity [3] is reported as 115.3 mg/dL. For the same compound, the Activity [4] was 132 U/ml, the Activity [5] was 2.1 mg/dL and the Activity [6] was 35 mg/dL. For the same compound, the Activity [7] was 582 U/mg protein and the Activity [8] was 41.3 KA/dl.
In the case of `CN1C[C@H](c2ccc(F)c(F)c2)[C@]2(SC(=O)NC2=S)[C@]12C(=O)Nc1ccccc12`, the Activity [1] is reported as 137.5 mg/dL, the Activity [2] is reported as 112.8 mg/dL and the Activity [3] is reported as 106.5 mg/dL. For the same compound, the Activity [4] was 137.5 U/ml, the Activity [5] was 1.5 mg/dL and the Activity [6] was 38.5 mg/dL. It also gave an Activity [7] of 626 U/mg protein and an Activity [8] of 37 KA/dl.
Compound `CN1C[C@H](c2ccc(O)c(O)c2)[C@]2(SC(=O)NC2=S)[C@]12C(=O)Nc1ccccc12` has an Activity [1] of 175.5 mg/dL, an Activity [2] of 158.5 mg/dL and an Activity [3] of 120.5 mg/dL. It also gave an Activity [4] of 142.8 U/ml, an Activity [5] of 2 mg/dL and an Activity [6] of 39 mg/dL. It also gave an Activity [7] of 646 U/mg protein and an Activity [8] of 43.8 KA/dl.
Work on `COc1ccc([C@H]2CN(C)[C@@]3(C(=O)Nc4ccccc43)[C@@]23SC(=O)NC3=S)cc1OC` yielded an Activity [1] of 140.5 mg/dL, an Activity [2] of 106.5 mg/dL and an Activity [3] of 95.8 mg/dL. The Activity [4] was 121 U/ml, the Activity [5] was 2.2 mg/dL and the Activity [6] was 35.5 mg/dL. The Activity [7] was 576 U/mg protein and the Activity [8] was 42.3 KA/dl.
For `Cc1ccc([C@H]2CN(C)[C@@]3(C(=O)Nc4ccccc43)[C@@]23SC(=O)NC3=O)cc1`, the Activity [1] was 140.5 mg/dL, the Activity [2] was 136.5 mg/dL and the Activity [3] was 125.5 mg/dL. It also gave an Activity [4] of 129.8 U/ml, an Activity [5] of 1.8 mg/dL and an Activity [6] of 37.5 mg/dL. For the same compound, the Activity [7] was 558 U/mg protein and the Activity [8] was 38.3 KA/dl.
